Here are results for 16 compounds from ChEMBL document CHEMBL4382233, “Discovery of novel arylethenesulfonyl fluorides as potential candidates against methicillin-resistant of Staphylococcus aureus (MRSA) for overcoming multidrug resistance of bacterial infections” (2019).

Values after ≈ are worked out from the molar mass of the structure shown.

What all share (format): functional
Test [1] concerns Staphylococcus aureus. In words: Antibacterial activity against methicillin-resistant Staphylococcus aureus after overnight incubation by micro broth dilution analysis. In general terms: In broth dilution the organism is exposed to a series of concentrations in liquid medium.
The subject of test [2] is Staphylococcus epidermidis. Kind of test: Antibacterial activity against methicillin-resistant Staphylococcus epidermidis after overnight incubation by micro broth dilution analysis.
In test [3] the test system is Staphylococcus haemolyticus. Kind of test: Antibacterial activity against methicillin-resistant Staphylococcus haemolyticus after overnight incubation by micro broth dilution analysis.
Test [4] deals with Staphylococcus aureus. Kind of test: Antibacterial activity against methicillin-resistant Staphylococcus aureus assessed as zone of inhibition at 50 ug/mL after 24 hrs by agar disc diffusion method. To be noted: read-out: IZ. (Agar diffusion results depend on both activity and mobility in agar.)
Test [5] relates to Staphylococcus epidermidis. In words: Antibacterial activity against methicillin-resistant Staphylococcus epidermidis assessed as zone of inhibition at 20 ug/mL after 24 hrs by agar disc diffusion method. The settings on record: read-out: IZ.
Test [6] has as its system Staphylococcus haemolyticus. Kind of test: Antibacterial activity against methicillin-resistant Staphylococcus haemolyticus assessed as zone of inhibition at 50 ug/mL after 24 hrs by agar disc diffusion method. The settings on record: read-out: IZ.

Usually MIC99 stands for the lowest concentration that inhibits either 99% of growth or 99% of the strains tested, depending on the study. Low readings indicate higher susceptibility, high ones lower susceptibility. In the case of `O=S(=O)(F)/C=C/c1cccs1`, the MIC99 against Staphylococcus aureus [1] was found to be 52 µg/mL (≈ 271 µM); in test [2] it was 50.1 µg/mL (≈ 260 µM); in test [3], 50.6 µg/mL (≈ 263 µM). In addition, the zone of inhibition at 50 µg/mL came to 5.2 mm in the test with Staphylococcus aureus [4] and 4.1 mm in test [6]. For the same compound, in test [5], the zone of inhibition at 20 µg/mL came out at 4.5 mm.

With `O=S(=O)(F)/C=C/c1ccc(Oc2ccccc2)cc1`, the figures for the MIC99 (with Staphylococcus aureus [1]; in test [2]; in test [3]) were 51.2 µg/mL (≈ 184 µM), 44.2 µg/mL (≈ 159 µM) and 61.1 µg/mL (≈ 220 µM), respectively. The zone of inhibition at 50 µg/mL was 4.4 mm in the test with Staphylococcus aureus [4] and 4.1 mm in test [6]. The zone of inhibition at 20 µg/mL in test [5] was found to be 6.4 mm.

Consider `O=S(=O)(F)/C=C/c1cccc(-c2ccccc2)c1`, for which the MIC99 was determined as 40.1 µg/mL (≈ 153 µM) with Staphylococcus aureus [1], 44.1 µg/mL (≈ 168 µM) in test [2] and 40.2 µg/mL (≈ 153 µM) in test [3]. Also, the zone of inhibition at 50 µg/mL amounted to 7.8 mm in the test on Staphylococcus aureus [4] and 5.2 mm in test [6]. The zone of inhibition at 20 µg/mL in test [5] was determined as 5.5 mm.

Take `COc1ccc(Cl)cc1/C=C/S(=O)(=O)F`: the MIC99 against Staphylococcus aureus [1] is 51.1 µg/mL (≈ 204 µM); in test [2] it was 40.4 µg/mL (≈ 161 µM); in test [3], 47 µg/mL (≈ 188 µM). Moreover, the figures for the zone of inhibition at 50 µg/mL (in the test on Staphylococcus aureus [4]; in test [6]) were 5.1 mm and 5.2 mm, respectively. Besides, the zone of inhibition at 20 µg/mL in test [5] came to 5.2 mm.

For `O=S(=O)(F)/C=C/C=C/c1ccccc1C(F)(F)F`, the results for the MIC99 (in the test with Staphylococcus aureus [1]; in test [2]; in test [3]) were 55.1 µg/mL (≈ 197 µM), 52.6 µg/mL (≈ 188 µM) and 55.1 µg/mL (≈ 197 µM), respectively. Also, the figures for the zone of inhibition at 50 µg/mL (in the test with Staphylococcus aureus [4]; in test [6]) were 4.1 mm and 4.3 mm, respectively. For the same compound, the zone of inhibition at 20 µg/mL in test [5] is 4.1 mm.

`O=S(=O)(F)/C=C/c1coc2ccccc12`: the results for the MIC99 (against Staphylococcus aureus [1]; in test [2]; in test [3]) were 45 µg/mL (≈ 199 µM), 52.1 µg/mL (≈ 231 µM) and 51 µg/mL (≈ 225 µM), respectively. Also, the zone of inhibition at 50 µg/mL with Staphylococcus aureus [4] is 6.2 mm; in test [6], 3.5 mm. Moreover, the zone of inhibition at 20 µg/mL in test [5] is 6.4 mm.

In the case of `Cc1ccc(S(=O)(=O)n2cc(/C=C/S(=O)(=O)F)c3ccccc32)cc1`, the values for the MIC99 (against Staphylococcus aureus [1]; in test [2]; in test [3]) were 47.1 µg/mL (≈ 124 µM), 51.2 µg/mL (≈ 135 µM) and 58 µg/mL (≈ 153 µM), respectively. For the same compound, the zone of inhibition at 50 µg/mL with Staphylococcus aureus [4] worked out at 5.1 mm; in test [6], 4.2 mm. Moreover, in test [5], the zone of inhibition at 20 µg/mL came out at 4.1 mm.

On to `O=S(=O)(F)/C=C/c1ccc(I)cc1`, for which the MIC99 was 48.2 µg/mL (≈ 154 µM) against Staphylococcus aureus [1], 50.6 µg/mL (≈ 162 µM) in test [2] and 47.6 µg/mL (≈ 153 µM) in test [3]. Besides, the zone of inhibition at 50 µg/mL in the test on Staphylococcus aureus [4] is 5.2 mm; in test [6], 4.4 mm. Moreover, in test [5], the zone of inhibition at 20 µg/mL came to 5.2 mm.

In the case of `Cc1ccc(S(=O)(=O)n2c3ccccc3c3cc(/C=C/S(=O)(=O)F)ccc32)cc1`, the MIC99 with Staphylococcus aureus [1] came out at 48 µg/mL (≈ 112 µM); in test [2], 50.1 µg/mL (≈ 117 µM); in test [3] it was 58 µg/mL (≈ 135 µM). The values for the zone of inhibition at 50 µg/mL (in the test on Staphylococcus aureus [4]; in test [6]) were 4.3 mm and 3.3 mm, respectively. In addition, the zone of inhibition at 20 µg/mL in test [5] was 3.5 mm.

As to `Cc1ccc(S(=O)(=O)n2ccc3cc(/C=C/S(=O)(=O)F)ccc32)cc1`, the MIC99 was 60.6 µg/mL (≈ 160 µM) in the test on Staphylococcus aureus [1], 66 µg/mL (≈ 174 µM) in test [2] and 61 µg/mL (≈ 161 µM) in test [3]. The zone of inhibition at 50 µg/mL came to 4.2 mm with Staphylococcus aureus [4] and 3.5 mm in test [6]. Further, the zone of inhibition at 20 µg/mL in test [5] is 4.3 mm.

As for `O=S(=O)(F)/C=C/C=C/c1ccccc1`, the MIC99 was 56.2 µg/mL (≈ 265 µM) with Staphylococcus aureus [1], 52 µg/mL (≈ 245 µM) in test [2] and 58.1 µg/mL (≈ 274 µM) in test [3]. Besides, the results for the zone of inhibition at 50 µg/mL (in the test on Staphylococcus aureus [4]; in test [6]) were 6.2 mm and 5.2 mm, respectively. In addition, the zone of inhibition at 20 µg/mL in test [5] is 6.2 mm.

`O=S(=O)(F)/C=C/c1cccc(/C=C/S(=O)(=O)F)c1`: the MIC99 in the test on Staphylococcus aureus [1] was found to be 44.1 µg/mL (≈ 150 µM); in test [2], 41.2 µg/mL (≈ 140 µM); in test [3], 50 µg/mL (≈ 170 µM). Besides, the zone of inhibition at 50 µg/mL came out at 4.2 mm in the test on Staphylococcus aureus [4] and 4.4 mm in test [6]. For the same compound, the zone of inhibition at 20 µg/mL in test [5] worked out at 6.5 mm.

In the case of `O=Cc1ccc(/C=C/S(=O)(=O)F)o1`, the MIC99 with Staphylococcus aureus [1] was 0.845 µg/mL (≈ 4.14 µM); in test [2] it was 61 µg/mL (≈ 299 µM); in test [3], 55.1 µg/mL (≈ 270 µM). Besides, the values for the zone of inhibition at 50 µg/mL (in the test with Staphylococcus aureus [4]; in test [6]) were 7.2 mm and 4.5 mm, respectively. The zone of inhibition at 20 µg/mL in test [5] was found to be 7.4 mm.

With `O=Cc1ccccc1/C=C/S(=O)(=O)F`, the MIC99 in the test with Staphylococcus aureus [1] is 47.2 µg/mL (≈ 220 µM); in test [2], 52.1 µg/mL (≈ 243 µM); in test [3], 44.1 µg/mL (≈ 206 µM). In addition, the zone of inhibition at 50 µg/mL in the test with Staphylococcus aureus [4] was 6.1 mm; in test [6] it was 4.2 mm. In addition, the zone of inhibition at 20 µg/mL in test [5] was determined as 4.3 mm.

`COc1ccc(/C=C/S(=O)(=O)F)cc1`: the MIC99 came to 48.1 µg/mL (≈ 222 µM) against Staphylococcus aureus [1], 51.3 µg/mL (≈ 237 µM) in test [2] and 68.2 µg/mL (≈ 315 µM) in test [3]. Moreover, the zone of inhibition at 50 µg/mL with Staphylococcus aureus [4] came to 52 mm; in test [6], 6.3 mm. Moreover, the zone of inhibition at 20 µg/mL in test [5] was determined as 60.4 mm.

For the compound `O=S(=O)(F)/C=C/C=C/c1ccc(C(F)(F)F)cc1`, the MIC99 against Staphylococcus aureus [1] was found to be 59.1 µg/mL (≈ 211 µM); in test [2] it was 55.2 µg/mL (≈ 197 µM); in test [3] it was 67 µg/mL (≈ 239 µM). Moreover, the values for the zone of inhibition at 50 µg/mL (with Staphylococcus aureus [4]; in test [6]) were 5.1 mm and 4.5 mm, respectively. Moreover, the zone of inhibition at 20 µg/mL in test [5] stood at 6.5 mm.
